Measured values taken from patent US20250339547A1, “MET BCL-XL INHIBITOR ANTIBODY-DRUG CONJUGATES AND METHODS OF USE THEREOF” (Novartis AG, priority 2022, published 2025).

What was measured:
Type in all cases: cell-based
LU65 = assay: Lung cancer cell line viability, single agent or 1:1 combination (CTG 120h), Example 7; settings: Homo sapiens, Lu-65, 120 h, LU65, CTG 120 h
Experimental: (§1) Cell lines were cultured in the media described above at 37° C. in a humidified atmosphere containing 5% CO2. Cells were seeded in 96 well clear bottom plates (96 well clear-bottom, white, Corning reference 3903) and exposed to the mAbs, mAbs mixture, ADCs or ADCs mixture as single agents or in 1:1 combination with Paclitaxel. When in 1:1 combination, both the combining partner (Paclitaxel) and the mAb, mAb mixture, ADC or ADC mixture were serially diluted (9 concentrations each, triplicates). Effect on cell viability was assessed after 5 days of incubation at 37° C./5% CO2 by quantification of cellular ATP levels using CellTiter-Glo reagent (Promega Ref: G7571) at 75 μL reagent/well. All the conditions were tested in triplicates. Luminescence was quantified on a multipurpose plate reader. IC50s were calculated using standard four-parametric curve fitting. IC50 is defined as the compound concentration at which the CTG signal is reduced to 50% of that measured for the control. Two independent experiments were performed (N1 and N2).

HCC366 = assay: as above; settings: HCC366, 120 h, HCC366, CTG 120 h
Experimental: as §1

CALU1 = assay: as above; settings: Homo sapiens, Calu-1, 120 h, CALU1, CTG 120 h
Experimental: as §1

HCC827 = assay: as above; settings: Homo sapiens, HCC827, 120 h, HCC827, CTG 120 h
Experimental: as §1

HCC78 = assay: as above; settings: Homo sapiens, HCC78, 120 h, HCC78, CTG 120 h
Experimental: as §1

NCI-H1838 = assay: as above; settings: Homo sapiens, NCI-H1838, 120 h, NCI-H1838, CTG 120 h
Experimental: as §1

HCC4006 = assay: as above; settings: Homo sapiens, HCC4006, 120 h, HCC4006, CTG 120 h
Experimental: as §1

NCI-H441 = assay: as above; settings: Homo sapiens, NCI-H441, 120 h, NCI-H441, CTG 120 h
Experimental: as §1

NCI-H1975 = assay: as above; settings: Homo sapiens, NCI-H1975, 120 h, NCI-H1975, CTG 120 h
Experimental: as §1

Panc 10.05 = assay: Pancreatic cancer cell line viability, single agent or 1:1 combination (CTG 120h), Example 10; settings: Homo sapiens, Panc1005, 120 h, Panc 10.05, CTG 120 h
Experimental: (§2) Cell lines were cultured in the media described above at 37° C. in a humidified atmosphere containing 5% CO2. Cells were seeded in 96 well clear bottom plates (96 well clear-bottom, white, Corning reference 3903) and exposed to the mAbs or ADCs as single agents or in 1:1 combination with Paclitaxel, Trametinib or Gemcitabine. When in 1:1 combination, both the combining partner (Paclitaxel, Trametinib or Gemcitabine) and the mAb or ADC were serially diluted (9 concentrations each, triplicates). Effect on cell viability was assessed after 5 days of incubation at 37° C./5% CO2 by quantification of cellular ATP levels using CellTiter-Glo reagent (Promega Ref: G7571) at 75 μL reagent/well. All the conditions were tested in triplicates. Luminescence was quantified on a multipurpose plate reader. IC50s were calculated using standard four-parametric curve fitting. IC50 is defined as the compound concentration at which the CTG signal is reduced to 50% of that measured for the control. Two independent experiments were performed (N1 and N2).

BxPC-3 = assay: as above; settings: Homo sapiens, BXPC-3, 120 h, BxPC-3, CTG 120 h
Experimental: as §2

AsPC-1 = assay: as above; settings: Homo sapiens, ASPC1, 120 h, AsPC-1, CTG 120 h
Experimental: as §2

KP-4 = assay: as above; settings: Homo sapiens, KP-4, 120 h, KP-4, CTG 120 h
Experimental: as §2

Hs766T = assay: as above
Experimental: as §2

[1] = tested on: HCC78 lung cancer cell line; assay: HCC78 viability, single agent or 1:1 combination with Paclitaxel (CTG 120h), Example 8; settings: for effect on the viability: HCC-78, single agents, FIG. 3
Experimental: HCC78 lung cancer cell line was cultured in the media described above at 37° C. in a humidified atmosphere containing 5% CO2. Cells were seeded in 96 well clear bottom plates (96 well clear-bottom, white, Corning reference 3903) and exposed to the mAbs or ADCs as single agents or in 1:1 combination with Paclitaxel. When in 1:1 combination, both Paclitaxel and the mAb or ADC were serially diluted (9 concentrations each, triplicates). Effect on cell viability was assessed after 5 days of incubation at 37° C./5% CO2 by quantification of cellular ATP levels using CellTiter-Glo reagent (Promega Ref: G7571) at 75 μL reagent/well. All the conditions were tested in triplicates. Luminescence was quantified on a multipurpose plate reader. IC50s were calculated using standard four-parametric curve fitting. IC50 is defined as the compound concentration at which the CTG signal is reduced to 50% of that measured for the control. Two independent experiments were performed (N1 and N2).

## Cc1c(Nc2nc3ccccc3s2)nnc2c1CCCN2c1ccc(-c2cnn(C[C@]34C[C@]5(C)C[C@](C)(C3)C[C@@](OCCNCCCO)(C5)C4)c2C)c(C(=O)O)n1 [P25, 6-[3-(1,3-benzothiazol-2-ylamino)-4-methyl-6,7-dihydro-5H-pyrido[2,3-c]pyridazin-8-yl]-3-[1-[[3-[2-(3-hydroxypropylamino)ethoxy]-5,7-dimethyl-1-adamantyl]methyl]-5-methyl-pyrazol-4-yl]pyridine-2-carboxylic acid]
LU65; Mean
  IC50: > 10 µM
LU65; n1
  IC50: 5.61 µM
LU65; n2
  IC50: > 10 µM
HCC366; Mean
  IC50: 0.0294 µM
HCC366; n1
  IC50: 0.0149 µM
HCC366; n2
  IC50: 0.0438 µM
CALU1; Mean
  IC50: 0.0146 µM
CALU1; n1
  IC50: 0.00178 µM
CALU1; n2
  IC50: 0.0146 µM
HCC827; Mean
  IC50: 0.108 µM
HCC827; n1
  IC50: 0.0574 µM
HCC827; n2
  IC50: 0.158 µM
HCC78; Mean
  IC50: 2.27 µM
HCC78; n1
  IC50: 3.22 µM
HCC78; n2
  IC50: 1.31 µM
NCI-H1838; Mean
  IC50: 0.034 µM
NCI-H1838; n1
  IC50: 0.0414 µM
NCI-H1838; n2
  IC50: 0.0267 µM
HCC4006; Mean
  IC50: 7.46 µM
HCC4006; n1
  IC50: 7.46 µM
HCC4006; n2
  IC50: > 10 µM
NCI-H441; Mean
  IC50: 1.02 µM
NCI-H441; n1
  IC50: 1.01 µM
NCI-H441; n2
  IC50: 1.03 µM
NCI-H1975; Mean
  IC50: 9.03 µM
NCI-H1975; n1
  IC50: 9.03 µM
NCI-H1975; n2
  IC50: > 10 µM
Panc 10.05; mean
  IC50: 0.0735 µM
Panc 10.05; n1
  IC50: 0.0616 µM
Panc 10.05; n2
  IC50: 0.0853 µM
BxPC-3; mean
  IC50: 21.8 µM
BxPC-3; n1
  IC50: 20.8 µM
BxPC-3; n2
  IC50: 22.8 µM
AsPC-1; mean
  IC50: 0.244 µM
AsPC-1; n1
  IC50: 0.368 µM
AsPC-1; n2
  IC50: 0.121 µM
KP-4; mean
  IC50: 16.9 µM
KP-4; n1
  IC50: 14.7 µM
KP-4; n2
  IC50: 19.2 µM
Hs766T; mean
  IC50: 1.64 µM
Hs766T; n1
  IC50: 1.9 µM
Hs766T; n2
  IC50: 1.37 µM
[1]
  effect on the viability: induced a dose dependent decrease in the viability

## CC(=O)O[C@H]1C(=O)[C@@]2(C)[C@H]([C@H](OC(=O)c3ccccc3)[C@]3(O)C[C@H](OC(=O)[C@H](O)[C@@H](NC(=O)c4ccccc4)c4ccccc4)C(C)=C1C3(C)C)[C@]1(OC(C)=O)CO[C@@H]1C[C@@H]2O [Paclitaxel, paclitaxel]
LU65; Mean
  IC50: 0.0297 µM
LU65; n1
  IC50: 0.0324 µM
LU65; n2
  IC50: 0.027 µM
HCC366; Mean
  IC50: 0.00745 µM
HCC366; n1
  IC50: 0.004 µM
HCC366; n2
  IC50: 0.0109 µM
CALU1; Mean
  IC50: 0.0255 µM
CALU1; n1
  IC50: 0.0137 µM
CALU1; n2
  IC50: 0.0374 µM
HCC827; Mean
  IC50: 0.00527 µM
HCC827; n1
  IC50: 0.00411 µM
HCC827; n2
  IC50: 0.00642 µM
HCC78; Mean
  IC50: 0.0034 µM
HCC78; n1
  IC50: 0.00252 µM
HCC78; n2
  IC50: 0.00429 µM
NCI-H1838; Mean
  IC50: > 0.3 µM
NCI-H1838; n1
  IC50: > 0.3 µM
NCI-H1838; n2
  IC50: > 0.3 µM
HCC4006; Mean
  IC50: 0.00466 µM
HCC4006; n1
  IC50: 0.0059 µM
HCC4006; n2
  IC50: 0.00342 µM
NCI-H441; Mean
  IC50: 0.00648 µM
NCI-H441; n1
  IC50: 0.0092 µM
NCI-H441; n2
  IC50: 0.00375 µM
NCI-H1975; Mean
  IC50: 0.00253 µM
NCI-H1975; n1
  IC50: 0.00334 µM
NCI-H1975; n2
  IC50: 0.00172 µM
Panc 10.05; mean
  IC50: 0.00793 µM
Panc 10.05; n1
  IC50: 0.00565 µM
Panc 10.05; n2
  IC50: 0.0102 µM
BxPC-3; mean
  IC50: 0.00093 µM
BxPC-3; n1
  IC50: 0.0006 µM
BxPC-3; n2
  IC50: 0.00125 µM
AsPC-1; mean
  IC50: 0.0102 µM
AsPC-1; n1
  IC50: 0.0124 µM
AsPC-1; n2
  IC50: 0.00806 µM
KP-4; mean
  IC50: 0.00233 µM
KP-4; n1
  IC50: 0.00047 µM
KP-4; n2
  IC50: 0.00419 µM
Hs766T; mean
  IC50: > 30 µM
Hs766T; n2
  IC50: > 30 µM
[1]; HCC-78, FIG. 3
  Maximal effect on the viability (viability decrease): 80%
[1]
  effect on the viability: induced a dose dependent decrease in the viability
